Source: patent US12644133B2, “Methods and compositions to increase somatic cell nuclear transfer (SCNT) efficiency by removing histone H3-lysine trimethylation” (The Children's Medical Center Corporation, priority 2014, dated 2026)

Tested on: SCNT embryos
Test: Preimplantation development of SCNT embryos cultured in vitro
Format: cell-based, mouse
Settings: for No. of blastocyst / blastocyst (% per 1-cell): ntESC derivation experiment
From the text: C57BL/6J female mice were mated with DBA/2J males to produce B6D2F1/J (BDF1) mice. BDF1 and CD-1 (ICR) adult females were used for the collection of recipient oocytes and embryo transfer recipients, respectively. BDF1 mice were used for the collection of donor somatic cells for the analyses of development. (C57BL/6×CAST/EiJ) F1 mice were used for the collection of donor cells for RNA-seq. E13.5 embryos harboring GOF18 delta-PE (Jackson Laboratory, 004654: Tg(Pou5f1-EGFP)2Mnn, C57BL/6J background) were used for the isolation of mouse embryonic fibroblasts (MEF). All animal experiments were approved by the Institutional Animal Care and Use Committee of Harvard Medical School.
Cumulus cells were collected from adult BDF1 females through superovulation by injecting 7.5 IU of pregnant mare serum gonadotropin (PMSG; Harbor) and 7.5 IU of human chorionic gonadotropin (hCG; Millipore). Fifteen hours after the hCG injection, cumulus-oocyte complexes (COCs) were collected from the oviducts and briefly treated with Hepes-buffered potassium simplex-optimized medium (KSOM) containing 300 U/ml bovine testicular hyaluronidase (Calbiochem #385931) to obtain dissociated cumulus cells. Sertoli cells were collected from testes of 3- to 5-day-old BDF1 male mice as described (Matoba et al., 2011). Testicular masses were incubated in PBS containing 0.1 mg/ml collagenase (Life Technologies #17104-019) for 30 min at 37° C. followed by 5 min treatment with 0.25% Trypsine with 1 mM EDTA (Life Technologies #25200-056) at room temperature. After washing for four times with PBS containing 3 mg/ml bovine serum albumin, the dissociated cells were suspended in Hepes-KSOM medium.
Primary mouse embryonic fibroblast (MEF) cells were established from GOF18 delta-PE mouse embryos at 13.5 dpc. After removal of head and all organs, minced tissue from remaining corpus was dissociated in 500 μl of 0.25% Trypsine with 1 mM EDTA for 10 min at 37° C. Cell suspension was diluted with equal amount of DMEM (Life Technologies #11995-073) containing 10% FBS and Penicillin/Streptomycin (Life Technologies #15140-022) and pipetted up and down for 20 times. The cell suspension was diluted with fresh medium and plated onto 100 mm dishes and cultured at 37° C. Two days later, MEF cells were harvested and frozen. Frozen stocks of MEF cells were thawed and used for experiments after one passage.
siRNAs against mouse Suv39h1 (Life Technologies #s74607), Suv39h2 (Life Technologies #s82300) and Setdb1 (Life Technologies #s96549) were diluted in nuclease free water at 50 μM stock solutions. siRNAs were introduced to MEFs with Lipofectamine RNAi Max (Life technologies #35050-061) following manufacturer's protocol. Briefly, 1×10^5 MEF cells were seeded onto 24-well plate (day 0; see FIG. 5A). Twenty-four hours later, […] siRNAs were transfected into MEF cells using Lipofectamine RNAi Max (day 1). Twenty-four hours after the first transfection, the culture media was changed to fresh M293T media [DMEM supplemented with 10% FBS, 0.1 mM non-essential amino acids (Life technologies #11140-050), 2 mM GlutaMAX (Life technologies #35050-079), 50 U/ml penicillin-streptomycin and 0.1 mM 2-mercaptoethanol (Life technologies #21985-023)] (day 2). On day 3, MEF cells were reseeded onto 24-well plates at the density of 1×10^5 cells. Then transfection was repeated once as described above (day 4). Forty-eight hours after the second transfection (day 6), MEF cells were used for immunostaining, RT-qPCR or SCNT.
Somatic cell nuclear transfer was carried out as described previously (Matoba et al., 2011). Briefly, recipient MII oocytes were collected from superovulated adult BDF1 females by brief treatment with 300 U/ml bovine testicular hyaluronidase (Calbiochem). Isolated MII oocytes were enucleated in Hepes-buffered KSOM medium containing 7.5 μg/ml of cytochalasin B (Calbiochem #250233). […]

[1] = MEF donor cells (C57BL/6, male) treated with transfection reagent alone, injected mRNA 1800 ng/μl
[2] = Sertoli donor cells (BDF1, male), injected mRNA 1800 ng/μl
[3] = cumulus donor cells (BDF1, female), TSA treatment 15 nM for 8 h, water or mRNA 1800 ng/μl injected
[4] = cumulus donor cells (BDF1, female), no TSA, injected mRNA 1800 ng/μl
[5] = cumulus donor cells (BDF1, female), no TSA, mRNA 1800 ng/μl

## Kdm4d WT mRNA: in vitro transcribed full length mouse Kdm4d mRNA, encoding an H3K9me3-specific histone demethylase
[1]
  % 4-cell per 2-cell ± SD: 95.4 ± 5.5 %
  % blast per 2-cell ± SD: 82.0 ± 10.3 %
  % cleaved per 1-cell ± SD: 86.9 ± 8.8%
  % morula per 2-cell ± SD: 89.6 ± 7.9 %
Sertoli cells or C57BL/6 background MEF cells as donor cells
  developmental efficiency of SCNT embryos (in words): significantly improved the developmental efficiency
[2]
  % 4-cell per 2-cell ± SD: 95.3 ± 3.6 %
  % blast per 2-cell ± SD: 81.2 ± 7.5 %
  % cleaved per 1-cell ± SD: 89.3 ± 8.4%
  % morula per 2-cell ± SD: 91.6 ± 6.4 %
[3]
  % 4-cell per 2-cell ± SD: 95.8 ± 0.0 %
  % cleaved per 1-cell ± SD: 94.1 ± 0.0%
  % morula per 2-cell ± SD: 93.8 ± 6.3 %
  No. of blastocyst: 21
  blastocyst (% per 1-cell): 95.5%
Cumulus donor cells (BDF1, female), TSA treatment 15 nM for 8 h, water or mRNA 1800 ng/μl injected, listed as Kdm4d WT
  % blast per 2-cell ± SD: 87.5 ± 12.5 %
Cumulus donor cells (BDF1, female), TSA treatment 15 nM for 8 h, water or mRNA 1800 ng/μl injected, listed as Kdm4d mRNA
  % blast per 2-cell ± SD: 87.5%
[4]
  % 4-cell per 2-cell ± SD: 98.9 ± 2.3 %
  % cleaved per 1-cell ± SD: 92.7 ± 6.2%
  % morula per 2-cell ± SD: 96.5 ± 4.4 %
Cumulus donor cells (BDF1, female), no TSA, injected mRNA 1800 ng/μl, 96 h culture, listed as Kdm4d
  % blast per 2-cell ± SD: 88.6%
Cumulus donor cells (BDF1, female), no TSA, injected mRNA 1800 ng/μl, 96 h culture, listed as Kdm4d WT
  % blast per 2-cell ± SD: 88.6 ± 3.9 %
Cumulus donor cells (BDF1, female), no TSA, injected mRNA 1800 ng/μl, 96 h culture, listed as wild-type Kdm4d mRNA
  % blast per 2-cell ± SD: 88.6%
[5]
  No. of blastocyst: 18
  blastocyst (% per 1-cell): 94.7%
